Experimental findings from PubChem BioAssay (NCI) are described below.

Test systems include UACC-62 melanoma; IGROV1 ovarian; KM12 colon; M14 melanoma; K-562 leukemia; SK-MEL-2 melanoma; NCI-H522 lung; HOP-62 NSCLC; SNB-19 CNS; OVCAR-4 ovarian.
Holding throughout (assay): inhibition of tumour cell growth, NCI panel, 48 h

The structures appear in SMILES notation.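 Where inhibition never reached the appropriate level, the endpoint shown equals the highest concentration tested. Otherwise, values were interpolated linearly from a five-concentration, 48-hour dose response in 96-well plates. At the TGI there is no net growth.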 Where only a bound is given, the exact number is not on record here.

Turning to `CC(=O)N1C(C(=O)NC2CCCCC2)CSC1c1ccccc1` (stereo not given), the TGI in the experiment on UACC-62 melanoma, in the experiment on IGROV1 ovarian, in the experiment with KM12 colon, in the experiment on M14 melanoma, in the experiment with K-562 leukemia and in the experiment on SK-MEL-2 melanoma was greater than 100 µM each time. The TGI in the experiment with NCI-H522 lung, with HOP-62 NSCLC, with SNB-19 CNS and with OVCAR-4 ovarian was greater than 100 µM throughout.
Consider `N#CC(NCc1cccc(CNC(C#N)c2ccccc2)c1)c1ccccc1` (stereo not given), for which the TGI in the experiment on UACC-62 melanoma is greater than 100 µM; with IGROV1 ovarian, 41.8 µM; in the experiment on KM12 colon, 56.6 µM; with M14 melanoma, 62.2 µM; in the experiment on K-562 leukemia, 31.9 µM; in the experiment with SK-MEL-2 melanoma it was greater than 100 µM. In addition, the TGI with NCI-H522 lung, in the experiment on HOP-62 NSCLC, in the experiment on SNB-19 CNS and with OVCAR-4 ovarian was greater than 100 µM throughout.
Consider `COP(=O)(OC)C1=c2c(C)noc2=C2C=COC2C1=O` (stereo not given), for which the TGI in the experiment with UACC-62 melanoma, in the experiment with IGROV1 ovarian, in the experiment with KM12 colon, with M14 melanoma, in the experiment with K-562 leukemia and in the experiment with SK-MEL-2 melanoma was greater than 100 µM each time. Moreover, the TGI in the experiment on NCI-H522 lung, with HOP-62 NSCLC, with SNB-19 CNS and in the experiment on OVCAR-4 ovarian was greater than 100 µM each time.
Consider `COc1cccc(C2SC(N)=Nc3c2c(C)nn3C(=O)c2ccccc2O)c1` (stereo not given), for which the TGI with UACC-62 melanoma, in the experiment on IGROV1 ovarian, in the experiment with KM12 colon, in the experiment with M14 melanoma, with K-562 leukemia and in the experiment on SK-MEL-2 melanoma was greater than 10 µM in each case. Moreover, the TGI is greater than 10 µM with NCI-H522 lung, greater than 10 µM in the experiment with HOP-62 NSCLC, greater than 10 µM with SNB-19 CNS and greater than 8.45 µM in the experiment with OVCAR-4 ovarian.
Consider `CC(C)c1cc2c(cc1S(=O)(=O)O)[C@@]1(C)CCC[C@@](C)(C(=O)O)C1CC2` (stereo not given in full), for which the TGI with UACC-62 melanoma, in the experiment with IGROV1 ovarian, in the experiment with KM12 colon, with M14 melanoma, with K-562 leukemia and in the experiment with SK-MEL-2 melanoma was greater than 100 µM each time. Further, the TGI in the experiment with NCI-H522 lung, in the experiment with HOP-62 NSCLC, in the experiment with SNB-19 CNS and in the experiment with OVCAR-4 ovarian was greater than 100 µM throughout.
